From US20250332298A1, “PEPTIDE-COUPLED ALGINATE GELS COMPRISING RADIONUCLIDES” (BLUE WAVE THERAPEUTICS GMBH, priority 2021, published 2025)
“And” between values parts separate entries of the source, which are not always exact repeats. Equal entries are not always repeated.

Key:
[1] = Binding efficiency of thorium-227 and its decay daughters to preformed alginate microspheres (calcium cross-linked); format: physicochemical; details: for Bound at 1 h, Bq: 227Th4+ solution in NaCl; for Bound at 1 h, Bq / Bound at 1 h, %: 1 h incubation; for Bound at 2 h, Bq / Bound at 2 h, %: 2 h incubation; for Bound at 1 h, % / Bound at 2 h, %: % of available radioactivity
Procedure: In this Experiment, binding of a tetravalent radionuclide cation to alginate microspheres was studied.
Calcium crosslinked, inhomogeneous gelled alginate microspheres were made in the same manner as shown in Example 5 above. The microspheres were washed three times using 0.9% NaCl solution, resuspended in 0.8% NaCl and incubated with a solution of ^227Th^4+. Of the available amount of radioactivity, approximately 30% bound to the pre-formed alginate microspheres (Table 3).

[2] = Binding of radium-224 and decay daughters to calcium alginate microparticles and retention over 12 days; details: for Day 0 particles directly after labelling, radioactivity: 30 mg microparticles, 30 min room temperature, washed, HPGe; for Day 1 radioactivity associated with particles: 24 hours after labelling; for Day 1 radioactivity associated with particles / Day 12 radioactivity associated with particles: room temperature, after washing with water; for Day 12 radioactivity associated with particles: 12 days after labelling; for Day 0 % bound radioactivity relative to available radioactivity: directly after labelling
Procedure: Calcium alginate was produced via the conversion of sodium alginate powder suspended in isopropyl alcohol by adding an aqueous solution of calcium chloride as exemplified in US 2011/0053886 incorporated herein.
A 30 mg sample of calcium alginate microparticles, having an average size distribution (DV50) of 13 μm, was resuspended first in 200 μl water, then 150 μl radium-224 solution was added followed by an additional 150 μl of water. The sample was vortex mixed then incubated at room temperature for 30 min. An aliquot of 500 μl water was added to the particle suspension. The sample was vortex mixed then centrifuged for 1 min at 6000 rpm. The supernatant was transferred to another Eppendorf tube labelled Wash 1. The particle sample was then resuspended in 1000 μl water, vortexed, then centrifuged. The supernatant was transferred to an Eppendorf tube labelled Wash 2. The wash with 1000 μl water was repeated and the supernatant collected to tube Wash 3. Samples were then analysed for radioactivity using a high purity germanium detector.
The sample was kept at room temperature and analysed again at day 1 (24 hours after labelling) and 12 days after labelling. Radioactivity was determined after first washing the particles with water.
This solution represents the available radioactivity, and radionuclides, added to calcium alginate microparticles. Following incubation and a wash to remove unbound radioactivity, the radioactivity associated with the alginate microparticles was again measured respective to each decay daughter radionuclide. The % bound radioactivity relative to the available radioactivity was calculated.
When the particles were washed on day 1 after labelling, and radioactivity determined (HPGe detector), in addition, the amount of 224-Ra radioactivity theoretically remaining associated with the alginate microparticles was calculated using an available radioactive decay calculator (http://www.radprocalculator.com).

Compound	Bound at 1 h, Bq [1]	Bound at 2 h, Bq [1]	Bound at 1 h, % [1]	Bound at 2 h, % [1]	Day 0 particles directly after labelling, radioactivity [2]	Day 1 radioactivity associated with particles [2]	Day 12 radioactivity associated with particles [2]	Day 0 % bound radioactivity relative to available radioactivity [2]	also measured
[223Ra] [Radium-223]	10512 Bq	11201 Bq	111.5%	118.8%					Bound at 1 h, % ([1]; listed as 223Ra): 100%; Bound at 1 h, % ([1]; listed as radium): 100%
[224Ra] [Formulation 224-Ra, radium-224]					8720 Bq and 8740 Bq	7270 Bq	913 Bq	94.9%	Day 1 % radioactivity remaining bound relative to theoretical radioactivity following decay ([2]; Day 1): 100%; Day 12 % radioactivity remaining bound relative to theoretical radioactivity following decay ([2]; Day 12): 100% and 101%
[227Th] [Thorium-227]	24679 Bq	30647 Bq	30.4%	37.7%					Bound at 1 h, % ([1]; listed as 227Th): approximately 30%; Bound at 1 h, % ([1]; listed as thorium-227): approximately 30%
[212Bi] [Formulation 212-Bi, bismuth 212]					7640 Bq	7650 Bq	910 Bq	83.6%	
[212Pb] [Formulation 212-Pb, lead-212]					8370 Bq	7840 Bq	1040 Bq		
[211Bi] [Bismuth-211]	10067 Bq	11154 Bq	90.2%	99.9%					Bound at 1 h, % ([1]; listed as 211Bi): 100%; Bound at 1 h, % ([1]; listed as bismuth): 100%
